Test [1] relates to Staphylococcus aureus. The test can be described thus: Antimicrobial activity against methicillin-resistant Staphylococcus aureus effluxing isolate. It is filed as functional.
Test [2] relates to Staphylococcus aureus. Nature of the test: Inhibition of multidrug-resistant efflux pump in methicillin-resistant Staphylococcus aureus effluxing isolate assessed as fold reduction of chlorehexidin MIC at 10 ug/ml by microdilution method. It is filed as functional. A general note: Broth dilution looks for growth in wells or tubes with falling amounts of substance.
Test [3] deals with Staphylococcus aureus. The test can be described thus: Inhibition of multidrug-resistant efflux pump in methicillin-resistant Staphylococcus aureus effluxing isolate assessed as fold reduction of dequalinium MIC at 10 ug/ml by microdilution method. It is filed as functional.
For test [4], the system named is Staphylococcus aureus. The test can be described thus: Inhibition of multidrug-resistant efflux pump in methicillin-resistant Staphylococcus aureus effluxing isolate assessed as fold reduction of acriflavine MIC at 10 ug/ml by microdilution method. It is filed as functional.
The subject of test [5] is Staphylococcus aureus. The test can be described thus: Inhibition of multidrug-resistant efflux pump in methicillin-resistant Staphylococcus aureus effluxing isolate assessed as fold reduction of ethidium-bromide MIC at 10 ug/ml by microdilution method. It is filed as functional.
In test [6] the test system is Staphylococcus aureus. Nature of the test: Inhibition of multidrug-resistant efflux pump in methicillin-resistant Staphylococcus aureus effluxing isolate assessed as fold reduction of Norfloxacin MIC at 10 ug/ml by microdilution method. Type of test: functional.
The subject of test [7] is Staphylococcus aureus. The test can be described thus: Inhibition of multidrug-resistant efflux pump in methicillin-resistant Staphylococcus aureus effluxing isolate assessed as fold reduction of tetraphenylphosphonium bromide MIC at 10 ug/ml by microdilution method. It is filed as functional.
In test [8] the test system is Staphylococcus aureus. The test can be described thus: Inhibition of multidrug-resistant efflux pump in methicillin-resistant Staphylococcus aureus effluxing isolate assessed as fold reduction of citramide MIC at 10 ug/ml by microdilution method. Type of test: functional, organism-based.

≈ marks a conversion by molar mass, not a printed value. A value given as a limit tells only on which side of the number the result lay.

The term MIC50 denotes an inhibitory concentration at the 50% level, which refers to growth in some studies and to a panel of isolates in others. Read a high MIC50 as weaker potency. A word on the MIC90: it is the lowest concentration that inhibits either 90% of growth or 90% of the strains tested, depending on the study. High values mean lower susceptibility, low ones higher susceptibility. Turning to `N=C(NCCCCCCNC(=N)NC(=N)Nc1ccc(Cl)cc1)NC(=N)Nc1ccc(Cl)cc1` [CHLORHEXIDINE], in the test on Staphylococcus aureus [1], the MIC50 stood at 0.31 µg/mL (≈ 0.613 µM) and the MIC90 stood at 0.63 µg/mL (≈ 1.25 µM). In addition, in the test with Staphylococcus aureus [2], the “fold change (FC)” value was found to be 8.

As for `Cc1cc(N)c2ccccc2[n+]1CCCCCCCCCC[n+]1c(C)cc(N)c2ccccc21.[Cl-].[Cl-]` [DEQUALINIUM CHLORIDE], the “fold change (FC)” value in the test with Staphylococcus aureus [3] stood at 4. In addition, in the test on Staphylococcus aureus [1], the MIC50 was found to be 1.25 µg/mL and the MIC90 was determined as 5 µg/mL.

In the test on Staphylococcus aureus [1], `C[n+]1c2cc(N)ccc2cc2ccc(N)cc21.[Cl-]` [EUFLAVINE] displayed an MIC50 of 12.5 µg/mL and an MIC90 of 50 µg/mL. For the same molecule, the “fold change (FC)” value in the test with Staphylococcus aureus [4] amounted to 4.

For the molecule `CC[n+]1c(-c2ccccc2)c2cc(N)ccc2c2ccc(N)cc21.[Br-]` [HOMIDIUM BROMIDE], in the test with Staphylococcus aureus [1], the MIC50 came to 6.25 µg/mL and the MIC90 worked out at 25 µg/mL. Further, the “fold change (FC)” value in the test with Staphylococcus aureus [5] is listed as 8.

Turning to `CCn1cc(C(=O)O)c(=O)c2cc(F)c(N3CCNCC3)cc21` [NORFLOXACIN], the “fold change (FC)” value in the test with Staphylococcus aureus [6] came to 4. Further, in the test on Staphylococcus aureus [1], the MIC50 came out at 12.5 µg/mL (≈ 39.1 µM) and the MIC90 is > 100 µg/mL.

As for `[Br-].c1ccc([P+](c2ccccc2)(c2ccccc2)c2ccccc2)cc1` [TETRAPHENYLPHOSPHONIUM BROMIDE], the “fold change (FC)” value in the test on Staphylococcus aureus [7] is given as 4. Besides, in the test on Staphylococcus aureus [1], the MIC50 is 25 µg/mL and the MIC90 came to 50 µg/mL.

With CETRIMIDE, the fold change (FC) with Staphylococcus aureus [8] came out at 4. In the test with Staphylococcus aureus [1], this molecule displayed an MIC50 of 0.63 µg/mL and an MIC90 of 1.25 µg/mL.

The record behind these values is ChEMBL document CHEMBL1143409, “Efflux-related resistance to norfloxacin, dyes, and biocides in bloodstream isolates of Staphylococcus aureus” (2007).
